Patent US11148998B2, “Dimethyl-nonatetraenyl-trimethyl-cyclohexyl compounds and uses thereof” (The Regents of the University of Michigan, priority 2017, dated 2021)

What was measured:
human dermal fibroblasts = test: Retinoid-induced fibroblast cytotoxicity; type: cell-based; conditions: KBM 1.5 mM calcium, 72 hours, up to 5 μg/mL
Method: Human dermal fibroblasts are isolated from skin biopsies as described previously and grown in monolayer culture using DMEM supplemented with 10% fetal bovine serum as culture medium (see, e.g., Varani J, et al., J Clin Invest. 1994; 94; Varani J, et al., J. Invest. Dermatol. 94:717-723, 1990). Growth is at 37° C. in a humidified atmosphere containing 5% CO2 and 95% air. For experimental studies, cells are plated at 5×10^4 cells per well in wells of a 24-well culture dish in the same culture medium. One day later, cells are washed and the DMEM culture medium is replaced with Keratinocyte Basal Medium (KBM).
This assay is similar to the fibroblast cytotoxicity assay except that the human dermal fibroblasts are plated in culture medium (KBM) supplemented with a concentration of calcium (1.5 mM) that supports survival on its own. The biologically active retinoids are included in the culture medium and the cells incubated for 72 hours. Under such conditions, there is little net increase in growth with added retinoid, and at high concentrations, cytotoxicity occurs (see, e.g., Varani, J., et al., J. Invest. Dermatol. 101:839-842).
That is, there was little decline in cell numbers compared to control with retinoid concentrations up to 5 μg/mL.

[1] = tested on: NB4 cells (PML cell line); test: NB4 cell differentiation (morphology, phase contrast); type: cell-based; conditions: 50 μg/mL, 48 hours
Method: FIGS. 8A & FIG. 8B: Morphological change with Compound 2. Control NB4 cells are shown after 48 hours incubation in culture medium in FIG. 8A.
Concentration-dependent and time-dependent growth inhibition studies were carried out in vitro. Cells were plated in wells of a 24-well dish at 5×10^4 cells per well in maintenance media (DMEM+2% fetal bovine serum. Each of the experimental retinoids were added at the desired concentrations and the cells incubated for 3 days. At the end of the incubation period, cells were counted using an electronic particle counter. Viability was determined by exclusion of trypan blue. To assess differentiation, cells were treated for three days with either the desired agent (or control) in culture medium. At the end of the incubation period, the cells were photographed under phase-contrast microscopy.
Inhibition could be seen at both 48 and 72 hours of incubation. […] The polarized, flattened morphology is evidence of differentiation. These studies, thus, indicate that the experimental retinoids have potential as anti-cancer agents.

Compound | fibroblast cytotoxicity (decline in cell numbers compared to control) (human dermal fibroblasts) | morphological change (evidence of differentiation) [1]
CC1=C(/C=C/C(C)=C/C=C/C(C)=C/C(=O)O)C(C)(C)CCC1 [ATRA, all-trans retinoic acid, reference compound] | lack of fibroblast cytotoxicity at concentrations as high as 5 μg/mL | 
CC1=C(/C=C/C(C)=C\C=C\C(C)=C\C(=O)N(C)CC(=O)c2ccccc2)C(C)(C)CCC1 [Example 2, (2E,4E 6Z,8E)-N,3,7-trimethyl—N-(2-oxo-2-phenylethyl)-9-(2,6,6-trimethylcyclohex-1-en-1-yl)nona-2,4,6,8-tetraenamide] |  | polarized and flattened
